Reference: publication PMC5218480 (PLoS ONE, 2017)

Test system: MV-4-11 cells
Assay: Gene expression microarray analysis (Affymetrix PrimeView) and GSEA
Assay type: cell-based, human
Set-up: RFU PODN (11730768_x_at) / Fold change /veh PODN (11730768_x_at) / RFU LINC00158 (11744669_a_at) / Fold change /veh LINC00158 (11744669_a_at) / RFU DUSP10 (11751237_a_at) / Fold change /veh DUSP10 (11751237_a_at) / RFU ID3 (11757404_x_at) / Fold change /veh ID3 (11757404_x_at) / RFU PLEKHG5 (11737974_s_at) / Fold change /veh PLEKHG5 (11737974_s_at) / RFU LRRC4B (11730491_at) / Fold change /veh LRRC4B (11730491_at) / RFU GIMAP4 (11747438_a_at) / Fold change /veh GIMAP4 (11747438_a_at) / RFU KRT8 (11758183_x_at) / Fold change /veh KRT8 (11758183_x_at) / RFU CNN1 (11734310_a_at) / Fold change /veh CNN1 (11734310_a_at) / RFU VPS37D (11726825_at) / Fold change /veh VPS37D (11726825_at) / RFU C10orf10 (11716522_x_at) / Fold change /veh C10orf10 (11716522_x_at) / RFU KIR2DL2 /// KIR2DL4 /// KIR2DL5A /// KIR2DL5B /// KIR2DS1 /// KIR2DS2 /// KIR2DS3 /// KIR2DS4 /// KIR3DL3 /// KIR3DL3 /// KIR3DS1 (11738374_at) / Fold change /veh KIR2DL2 /// KIR2DL4 /// KIR2DL5A /// KIR2DL5B /// KIR2DS1 /// KIR2DS2 /// KIR2DS3 /// KIR2DS4 /// KIR3DL3 /// KIR3DL3 /// KIR3DS1 (11738374_at) / RFU C1QL1 (11718748_at) / Fold change /veh C1QL1 (11718748_at) / RFU TMPRSS4 (11747572_a_at) / Fold change /veh TMPRSS4 (11747572_a_at) / RFU HAMP (11756126_x_at) / Fold change /veh HAMP (11756126_x_at) / RFU RNFT2 (11725882_a_at) / Fold change /veh RNFT2 (11725882_a_at) / RFU NR4A2 (11747474_a_at) / Fold change /veh NR4A2 (11747474_a_at) / RFU ABCC12 (11746883_a_at) / Fold change /veh ABCC12 (11746883_a_at) / RFU TMEM136 (11760407_x_at) / Fold change /veh TMEM136 (11760407_x_at) / RFU CLDN22 /// WWC2 (11732394_at) / Fold change /veh CLDN22 /// WWC2 (11732394_at) / RFU HLA-DPB1 (11760878_x_at) / Fold change /veh HLA-DPB1 (11760878_x_at) / RFU SPINT1 (11716480_a_at) / Fold change /veh SPINT1 (11716480_a_at) / RFU GAP43 (11754022_s_at) / Fold change /veh GAP43 (11754022_s_at) / RFU A4GNT (11735810_at) / Fold change /veh A4GNT (11735810_at) / RFU PRB3 (11715151_x_at) / Fold change /veh PRB3 (11715151_x_at) / RFU TUBB4B (11761932_at) / Fold change /veh TUBB4B (11761932_at) / RFU CAPN14 (11732068_a_at) / Fold change /veh CAPN14 (11732068_a_at) / RFU TMCC2 (11721928_a_at) / Fold change /veh TMCC2 (11721928_a_at) / RFU IRGQ (11745062_a_at) / Fold change /veh IRGQ (11745062_a_at) / RFU FAM174B (11720279_a_at) / Fold change /veh FAM174B (11720279_a_at) / RFU TMPRSS4 (11748680_a_at) / Fold change /veh TMPRSS4 (11748680_a_at) / RFU FAM212B (11763350_a_at) / Fold change /veh FAM212B (11763350_a_at) / RFU PLEKHG5 (11743358_a_at) / Fold change /veh PLEKHG5 (11743358_a_at) / RFU ZSCAN30 (11745921_a_at) / Fold change /veh ZSCAN30 (11745921_a_at) / RFU CMKLR1 (11741424_a_at) / Fold change /veh CMKLR1 (11741424_a_at) / RFU LOC101060620 /// MAPK8IP1 (11723275_at) / Fold change /veh LOC101060620 /// MAPK8IP1 (11723275_at) / RFU SPTSSB (11747773_x_at) / Fold change /veh SPTSSB (11747773_x_at) / RFU PRSS12 (11739890_at) / Fold change /veh PRSS12 (11739890_at) / RFU BIN1 (11741810_x_at) / Fold change /veh BIN1 (11741810_x_at) / RFU WNT11 (11732464_a_at) / Fold change /veh WNT11 (11732464_a_at) / RFU C10orf10 (11716521_a_at) / Fold change /veh C10orf10 (11716521_a_at) / RFU C5orf56 (11738089_at) / Fold change /veh C5orf56 (11738089_at) / RFU CYB561 (11721691_x_at) / Fold change /veh CYB561 (11721691_x_at) / RFU ANKRD19P (11752326_a_at) / Fold change /veh ANKRD19P (11752326_a_at) / RFU OR2T12 /// OR2T33 /// OR2T8 (11738714_s_at) / Fold change /veh OR2T12 /// OR2T33 /// OR2T8 (11738714_s_at) / RFU VCAN (11748164_a_at) / Fold change /veh VCAN (11748164_a_at) / RFU JSRP1 (11732532_at) / Fold change /veh JSRP1 (11732532_at) / RFU KRTAP10-11 (11738290_x_at) / Fold change /veh KRTAP10-11 (11738290_x_at) / RFU MYO3A (11730013_a_at) / Fold change /veh MYO3A (11730013_a_at) / RFU EBF3 (11725865_a_at) / Fold change /veh EBF3 (11725865_a_at) / RFU CAMK2N1 (11719241_x_at) / Fold change /veh CAMK2N1 (11719241_x_at) / RFU C5orf56 (11738088_a_at) / Fold change /veh C5orf56 (11738088_a_at) / RFU OLFML3 (11715873_a_at) / Fold change /veh OLFML3 (11715873_a_at) / RFU LOC100653217 /// NTM (11731650_a_at) / Fold change /veh LOC100653217 /// NTM (11731650_a_at) / RFU MAPK11 (11762145_a_at) / Fold change /veh MAPK11 (11762145_a_at) / RFU FIZ1 (11724087_x_at) / Fold change /veh FIZ1 (11724087_x_at) / RFU OASL (11726364_x_at) / Fold change /veh OASL (11726364_x_at) / RFU SOX15 (11748057_x_at) / Fold change /veh SOX15 (11748057_x_at) / RFU CD79A (11719716_a_at) / Fold change /veh CD79A (11719716_a_at) / RFU HIST1H1D (11736915_at) / Fold change /veh HIST1H1D (11736915_at) / RFU CASKIN2 (11723855_a_at) / Fold change /veh CASKIN2 (11723855_a_at) / RFU LOC730098 (11760151_x_at) / Fold change /veh LOC730098 (11760151_x_at) / RFU OR4N2 (11742367_at) / Fold change /veh OR4N2 (11742367_at) / RFU PRRT2 (11749266_a_at) / Fold change /veh PRRT2 (11749266_a_at) / RFU SNX32 (11753110_a_at) / Fold change /veh SNX32 (11753110_a_at) / RFU CDHR5 (11726645_a_at) / Fold change /veh CDHR5 (11726645_a_at) / RFU RCAN1 (11760418_a_at) / Fold change /veh RCAN1 (11760418_a_at) / RFU FAM167A (11723789_a_at) / Fold change /veh FAM167A (11723789_a_at) / RFU FAM26E (11764081_at) / Fold change /veh FAM26E (11764081_at) / RFU ISYNA1 (11749810_s_at) / Fold change /veh ISYNA1 (11749810_s_at) / RFU ACY1 (11761880_at) / Fold change /veh ACY1 (11761880_at) / RFU 11764098_at / Fold change /veh 11764098_at / RFU SAMD14 (11745864_x_at) / Fold change /veh SAMD14 (11745864_x_at) / RFU NPB (11741838_a_at) / Fold change /veh NPB (11741838_a_at) / RFU TMPRSS6 (11731388_a_at) / Fold change /veh TMPRSS6 (11731388_a_at) / RFU KRTAP10-2 (11738614_at) / Fold change /veh KRTAP10-2 (11738614_at) / RFU ARHGAP8 /// PRR5-ARHGAP8 (11727945_x_at) / Fold change /veh ARHGAP8 /// PRR5-ARHGAP8 (11727945_x_at) / RFU KRTAP5-7 /// NADSYN1 (11734609_at) / Fold change /veh KRTAP5-7 /// NADSYN1 (11734609_at) / RFU RASL12 (11751679_a_at) / Fold change /veh RASL12 (11751679_a_at) / RFU CDKN2B (11736163_a_at) / Fold change /veh CDKN2B (11736163_a_at) / RFU PRF1 (11729649_at) / Fold change /veh PRF1 (11729649_at) / RFU, ZNF638 /// ZNF638-IT1 / Fold change vs veh, ZNF638 /// ZNF638-IT1 / RFU, PANK3 / Fold change vs veh, PANK3 / RFU, SH3YL1 / Fold change vs veh, SH3YL1 / RFU, ZEB2 / Fold change vs veh, ZEB2 / RFU, NRIP1 / Fold change vs veh, NRIP1 / RFU, PTTG1IP / Fold change vs veh, PTTG1IP / RFU, CAPN2 / Fold change vs veh, CAPN2 / RFU, MED14 / Fold change vs veh, MED14 / RFU, SNORA58 / Fold change vs veh, SNORA58 / RFU, C1orf63 / Fold change vs veh, C1orf63 / RFU, LRRFIP1 / Fold change vs veh, LRRFIP1 / RFU, NDUFAF7 / Fold change vs veh, NDUFAF7 / RFU, SLC12A2 / Fold change vs veh, SLC12A2 / RFU, IBTK / Fold change vs veh, IBTK / RFU, ESF1 / Fold change vs veh, ESF1 / Fold change vs veh, TMEM50B / RFU, TAOK1 / Fold change vs veh, TAOK1 / RFU, ACBD3 / Fold change vs veh, ACBD3 / RFU, TMA16 / Fold change vs veh, TMA16 / RFU, RWDD3 / Fold change vs veh, RWDD3 / RFU, BCAT1 / Fold change vs veh, BCAT1 / RFU, EDEM3 / Fold change vs veh, EDEM3 / RFU, TMEM33 / Fold change vs veh, TMEM33 / RFU, WDR75 / Fold change vs veh, WDR75 / RFU, AHCTF1 / Fold change vs veh, AHCTF1 / RFU, TFRC / Fold change vs veh, TFRC / RFU, ZDHHC17 / Fold change vs veh, ZDHHC17 / RFU, NOM1 / Fold change vs veh, NOM1 / RFU, ARL8B / Fold change vs veh, ARL8B / RFU, ZBTB11 / Fold change vs veh, ZBTB11 / RFU, TAMM41 / Fold change vs veh, TAMM41 / RFU, KIAA1704 /// LOC100996395 / Fold change vs veh, KIAA1704 /// LOC100996395 / RFU, ING1 / Fold change vs veh, ING1 / RFU, TRMT61B / Fold change vs veh, TRMT61B / RFU, FUBP3 / Fold change vs veh, FUBP3 / RFU, TP53 / Fold change vs veh, TP53 / RFU, TNKS2 / Fold change vs veh, TNKS2 / RFU, ZFP14 / Fold change vs veh, ZFP14 / RFU, ACTR2 / Fold change vs veh, ACTR2 / RFU, PPP3R1 / Fold change vs veh, PPP3R1 / RFU, PIK3R1 / Fold change vs veh, PIK3R1 / RFU, HNRNPA1 / Fold change vs veh, HNRNPA1 / RFU, RNF170 / Fold change vs veh, RNF170 / RFU, ZNF28 / Fold change vs veh, ZNF28 / RFU, RNGTT / Fold change vs veh, RNGTT / RFU, OGT / Fold change vs veh, OGT / RFU, BRD1 / Fold change vs veh, BRD1 / RFU, MARS / Fold change vs veh, MARS / RFU, ZNF655 / Fold change vs veh, ZNF655 / RFU, FAHD1 / Fold change vs veh, FAHD1 / RFU, BDP1 / Fold change vs veh, BDP1 / RFU, LRRCC1 / Fold change vs veh, LRRCC1 / RFU, ARID1A / Fold change vs veh, ARID1A / RFU, ZNF146 / Fold change vs veh, ZNF146 / RFU, ZNF330 / Fold change vs veh, ZNF330 / RFU, GPN3 / Fold change vs veh, GPN3 / RFU, C9orf123 / Fold change vs veh, C9orf123 / RFU, N4BP2L2 / Fold change vs veh, N4BP2L2 / RFU, ARFIP1 / Fold change vs veh, ARFIP1 / RFU, FAM179B / Fold change vs veh, FAM179B / RFU, BCL10 / Fold change vs veh, BCL10 / RFU, UHRF1BP1L / Fold change vs veh, UHRF1BP1L / RFU, BET1 / Fold change vs veh, BET1 / RFU, CNOT2 / Fold change vs veh, CNOT2 / RFU, ZNF268 / Fold change vs veh, ZNF268 / Fold change vs veh, ZNF507 / RFU, DGCR2 / Fold change vs veh, DGCR2 / RFU, WDSUB1 / Fold change vs veh, WDSUB1 / Fold change vs veh, HSP90B1 /// MIR3652 / RFU, ADSS / Fold change vs veh, ADSS / RFU, GK / Fold change vs veh, GK / RFU, ZNF148 / Fold change vs veh, ZNF148 / RFU, TAF9 / Fold change vs veh, TAF9 / RFU, SLC1A5 / Fold change vs veh, SLC1A5 / RFU, SLMO2 / Fold change vs veh, SLMO2 / RFU, ABCC4 / Fold change vs veh, ABCC4 / RFU, LOC101060439 /// RAP1B / Fold change vs veh, LOC101060439 /// RAP1B / RFU, RFX7 / Fold change vs veh, RFX7 / RFU, GTPBP10 / Fold change vs veh, GTPBP10 / RFU, CNEP1R1 / Fold change vs veh, CNEP1R1 / RFU, BIVM-ERCC5 /// ERCC5 / Fold change vs veh, BIVM-ERCC5 /// ERCC5 / RFU, ILF3 / Fold change vs veh, ILF3 / RFU 11762660_at / Fold change /veh 11762660_at / RFU VCAN (11757783_s_at) / Fold change /veh VCAN (11757783_s_at) / RFU DDX43 (11728927_at) / Fold change /veh DDX43 (11728927_at) / RFU KRT8 (11758188_x_at) / Fold change /veh KRT8 (11758188_x_at) / RFU NKD1 (11759106_at) / Fold change /veh NKD1 (11759106_at) / RFU SRD5A1 (11742802_a_at) / Fold change /veh SRD5A1 (11742802_a_at) / RFU TPSAB1 /// TPSB2 (11721975_s_at) / Fold change /veh TPSAB1 /// TPSB2 (11721975_s_at) / RFU GSTM3 (11746129_a_at) / Fold change /veh GSTM3 (11746129_a_at) / RFU IL23R (11737362_x_at) / Fold change /veh IL23R (11737362_x_at) / RFU TMEM51 (11727254_a_at) / Fold change /veh TMEM51 (11727254_a_at) / RFU PIWIL2 (11732686_x_at) / Fold change /veh PIWIL2 (11732686_x_at) / RFU ORM1 (11744905_x_at) / Fold change /veh ORM1 (11744905_x_at) / RFU CCDC152 (11743942_at) / Fold change /veh CCDC152 (11743942_at) / RFU ECM1 (11717891_a_at) / Fold change /veh ECM1 (11717891_a_at) / RFU IL23R (11748794_a_at) / Fold change /veh IL23R (11748794_a_at) / RFU TNFAIP8L3 (11732012_x_at) / Fold change /veh TNFAIP8L3 (11732012_x_at) / RFU MBOAT4 (11741988_at) / Fold change /veh MBOAT4 (11741988_at) / RFU 11764193_at / Fold change /veh 11764193_at / RFU TMEM53 (11763286_at) / Fold change /veh TMEM53 (11763286_at) / RFU MAGEB2 (11727129_at) / Fold change /veh MAGEB2 (11727129_at) / RFU TMEM200A (11744735_a_at) / Fold change /veh TMEM200A (11744735_a_at) / RFU CCDC152 (11751479_a_at) / Fold change /veh CCDC152 (11751479_a_at) / RFU FAM211A (11726209_a_at) / Fold change /veh FAM211A (11726209_a_at) / RFU RGS16 (11746705_a_at) / Fold change /veh RGS16 (11746705_a_at) / RFU VCAN (11755009_s_at) / Fold change /veh VCAN (11755009_s_at) / RFU RHOB (11743442_s_at) / Fold change /veh RHOB (11743442_s_at) / RFU RGS16 (11720943_a_at) / Fold change /veh RGS16 (11720943_a_at) / RFU RGS16 (11720944_at) / Fold change /veh RGS16 (11720944_at) / RFU, VPS4B / Fold change vs veh, VPS4B / RFU, CREB1 / Fold change vs veh, CREB1 / RFU, DNAJC13 / Fold change vs veh, DNAJC13 / RFU, GNAQ / Fold change vs veh, GNAQ / RFU, CDK5R1 / Fold change vs veh, CDK5R1 / RFU, ZRANB3 / Fold change vs veh, ZRANB3 / RFU, CUL4A / Fold change vs veh, CUL4A / RFU, CCNY / Fold change vs veh, CCNY / RFU, UFL1 / Fold change vs veh, UFL1 / RFU, COG3 / Fold change vs veh, COG3 / RFU, DIAPH2 / Fold change vs veh, DIAPH2 / RFU, SKA2 / Fold change vs veh, SKA2 / RFU, AFF3 / Fold change vs veh, AFF3 / RFU, LMF1 / Fold change vs veh, LMF1 / RFU, IPO11 / Fold change vs veh, IPO11 / RFU, DFFB / Fold change vs veh, DFFB / RFU, FOXP1 / Fold change vs veh, FOXP1 / RFU, CARD8 / Fold change vs veh, CARD8 / RFU, STRN3 / Fold change vs veh, STRN3 / RFU, ADK / Fold change vs veh, ADK / RFU, RASSF2 / Fold change vs veh, RASSF2 / RFU, WIPF1 / Fold change vs veh, WIPF1 / RFU, LARP1B / Fold change vs veh, LARP1B / RFU, RASA1 / Fold change vs veh, RASA1 / RFU, RB1 / Fold change vs veh, RB1 / RFU, PPFIA1 / Fold change vs veh, PPFIA1 / RFU, MAT2A / Fold change vs veh, MAT2A / RFU, CCT5 / Fold change vs veh, CCT5 / RFU, WDR92 / Fold change vs veh, WDR92 / RFU, CUX1 / Fold change vs veh, CUX1 / RFU, TTC7A / Fold change vs veh, TTC7A / RFU, TMEM135 / Fold change vs veh, TMEM135 / RFU, DEPTOR / Fold change vs veh, DEPTOR / RFU, CPM / Fold change vs veh, CPM / RFU, DNAJB6 / Fold change vs veh, DNAJB6 / RFU, CACNA2D3 / Fold change vs veh, CACNA2D3 / RFU, DTX4 / Fold change vs veh, DTX4 / RFU, TFCP2 / Fold change vs veh, TFCP2 / RFU, GMCL1 /// GMCL1P1 / Fold change vs veh, GMCL1 /// GMCL1P1 / RFU, AEBP2 / Fold change vs veh, AEBP2 / RFU, SNHG1 /// SNORD22 /// SNORD25 /// SNORD26 /// SNORD27 /// SNORD28 /// SNORD29 /// SNORD31 / Fold change vs veh, SNHG1 /// SNORD22 /// SNORD25 /// SNORD26 /// SNORD27 /// SNORD28 /// SNORD29 /// SNORD31 / Fold change (Aza/veh), C12orf56 (ProbeSet 11735607_a_at) / Fold change (ACY-1035/veh), C12orf56 (ProbeSet 11735607_a_at) / Fold change (Aza/veh), FGFR1OP (ProbeSet 11751329_s_at) / Fold change (ACY-1035/veh), FGFR1OP (ProbeSet 11751329_s_at) / Fold change (Aza/veh), VPS36 (ProbeSet 11739960_a_at) / Fold change (ACY-1035/veh), VPS36 (ProbeSet 11739960_a_at) / RFU SYPL1 (11715823_x_at) / Fold change /veh SYPL1 (11715823_x_at) / RFU IGFBP7 (11715501_s_at) / Fold change /veh IGFBP7 (11715501_s_at) / RFU REEP3 (11722064_at) / Fold change /veh REEP3 (11722064_at) / RFU IGLL1 (11728026_x_at) / Fold change /veh IGLL1 (11728026_x_at): dose or concentration left out as unconfirmed
Details: MV-4-11 cells, 48 hours

SMILES: Nc1ccc(-c2cccs2)cc1NC(=O)c1ccc2c(c1)cc(C1CC1)n2CCN1CCOCC1 [ACY-1035]
- RFU ARHGAP8 /// PRR5-ARHGAP8 (11727945_x_at): 101.90 RFU
